# Reference: ChEMBL document CHEMBL5506068 (J Med Chem, 2024)
# Calls of active or inactive are those of the source. The rule behind the calls is not given here.
# Assays:
# [1] = test system: Mus musculus; experiment: Antinociception activity in male Swiss Webster mouse model assessed as increase in maximum possible effect at 10 mg/kg, sc administered as single dose measured after 20 mins in presence of morphine by warm-water tail immersion assay relative to control; assay type: functional
# [2] = target: T1, Delta-type opioid receptor (Homo sapiens, UniProt P41143); experiment: Displacement of [3H]diprenorphine from human DOR expressed in CHO cells assessed as dissociation constant incubated for […] by radioligand binding assay; assay type: cell-based
# T1 sequence (P41143 whole entry): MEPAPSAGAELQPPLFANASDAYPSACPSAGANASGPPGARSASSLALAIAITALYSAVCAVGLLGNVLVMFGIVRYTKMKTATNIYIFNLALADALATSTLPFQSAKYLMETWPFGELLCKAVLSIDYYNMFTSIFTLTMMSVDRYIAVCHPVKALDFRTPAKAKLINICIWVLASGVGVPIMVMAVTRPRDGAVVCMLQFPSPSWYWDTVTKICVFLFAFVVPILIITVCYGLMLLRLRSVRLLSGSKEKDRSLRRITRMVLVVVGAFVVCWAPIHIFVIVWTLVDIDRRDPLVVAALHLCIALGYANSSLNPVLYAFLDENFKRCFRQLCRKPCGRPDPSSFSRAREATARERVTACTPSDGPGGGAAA
# [3] = test system: Mus musculus; experiment: Antinociception activity in male Swiss Webster mouse model assessed as increase in maximum possible effect at 10 mg/kg, sc measured after 20 mins by warm-water tail immersion assay relative to control; assay type: functional
# [4] = target: Mu-type opioid receptor (Mus musculus, UniProt P42866); experiment: Displacement of [3H]Naloxone from mouse MOR expressed in CHO cells assessed as dissociation constant incubated for […] by radioligand binding assay; assay type: cell-based
# Chain of Mu-type opioid receptor (P42866 whole entry): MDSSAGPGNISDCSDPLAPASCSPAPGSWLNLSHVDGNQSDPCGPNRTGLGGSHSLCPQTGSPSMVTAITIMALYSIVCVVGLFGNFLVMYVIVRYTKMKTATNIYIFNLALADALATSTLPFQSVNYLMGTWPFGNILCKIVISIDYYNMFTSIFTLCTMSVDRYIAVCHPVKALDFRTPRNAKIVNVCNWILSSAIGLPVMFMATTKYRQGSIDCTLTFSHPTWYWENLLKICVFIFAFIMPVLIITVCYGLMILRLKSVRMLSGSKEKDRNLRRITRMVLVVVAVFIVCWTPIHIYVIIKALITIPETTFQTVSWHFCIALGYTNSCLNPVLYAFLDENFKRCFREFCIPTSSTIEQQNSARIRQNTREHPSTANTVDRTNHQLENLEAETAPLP
# [5] = target: Kappa-type opioid receptor (Mus musculus, UniProt P33534); experiment: Displacement of [3H]diprenorphine from mouse KOR expressed in CHO cells assessed as dissociation constant incubated for […] by radioligand binding assay; assay type: cell-based
# Chain of Kappa-type opioid receptor (P33534 whole entry): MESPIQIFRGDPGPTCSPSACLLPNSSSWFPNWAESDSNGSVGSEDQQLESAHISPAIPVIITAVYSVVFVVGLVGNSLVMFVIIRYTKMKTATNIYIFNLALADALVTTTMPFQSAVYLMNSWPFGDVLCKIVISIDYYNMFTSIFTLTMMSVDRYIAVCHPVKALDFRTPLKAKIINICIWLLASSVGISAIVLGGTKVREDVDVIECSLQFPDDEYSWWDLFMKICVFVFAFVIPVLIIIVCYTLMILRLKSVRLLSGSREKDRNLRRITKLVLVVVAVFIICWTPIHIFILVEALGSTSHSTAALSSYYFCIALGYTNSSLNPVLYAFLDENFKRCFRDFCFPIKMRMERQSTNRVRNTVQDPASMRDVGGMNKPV
# [6] = target: T1, Delta-type opioid receptor; experiment: Agonist activity at human DOR expressed in CHO cells increase in [35S]GTPgammaS binding measured after […] by scintillation counter analysis relative to SNC80; assay type: functional, cell-based; conditions: filed as agonist
# [7] = Toxicity in Swiss Webster mouse assessed as effect on average speed at 0.1 to 0.5 mg/kg,sc measured after 30 mins; assay type: organism-based; conditions: in vivo, 0.5 h, dose 0.1-0.5 mg/kg
# [8] = test system: Mus musculus; experiment: Antinociception activity in male Swiss Webster mouse model assessed as increase in maximum possible effect at 0.1 mg/kg, sc measured after 30 to 180 mins post injection by warm-water tail immersion assay; assay type: functional, organism-based; conditions: time 30-180 min
# [9] = Abuse liability in male Sprague-Dawley rat assessed as reduction in reinforcement at 0.32 to 10 microg/kg administered per infusion; assay type: toxicity; conditions: in vivo, iv, dose 0.32-10 µg/kg
# [10] = Drug uptake in Swiss Webster mouse plasma at 0.1 mg/kg, sc measured after 5 mins by LC-MS/MS analysis; assay type: ADME, organism-based; conditions: in vivo
# [11] = Toxicity in Swiss Webster mouse assessed as reduction in sedative effect at 0.1 to 0.5 mg/kg,sc; assay type: organism-based; conditions: in vivo, dose 0.1-0.5 mg/kg
# [12] = test system: Mus musculus; experiment: Antinociception activity in male Swiss Webster mouse model assessed as effect on tail withdrawal latency at 0.1 mg/kg, sc pre incubated with nor-BNI for 24 hrs followed by compound addition and measured after 20 mins by warm water tail immersion assay; assay type: functional, organism-based
# [13] = test system: Mus musculus; experiment: Antinociception activity in male Swiss Webster mouse model assessed as effect on tail withdrawal latency at 0.1 mg/kg, sc pre incubated with naltrindole for 30 mins followed by compound addition and measured after 20 mins by warm water tail immersion assay; assay type: functional, organism-based
# [14] = test system: Mus musculus; experiment: Antinociception activity in male Swiss Webster mouse model assessed as effect on tail withdrawal latency at 0.1 mg/kg, sc pre incubated with naltrindole/nor-BNI for 24 hrs followed by compound addition and measured after 20 mins by warm water tail immersion assay; assay type: functional, organism-based
# [15] = in vivo; conditions: Swiss Webster, mouse, blood and plasma, sc, 0.1 mg/kg
# Description: Ratio of drug level in Swiss Webster mouse blood to plasma at 0.1 mg/kg, sc measured after 30 mins by LC-MS/MS analysis
# [16] = Toxicity in Swiss Webster mouse assessed as effect on locomotion at 0.1 to 0.5 mg/kg,sc measured after 30 mins; assay type: organism-based; conditions: in vivo, 0.5 h, dose 0.1-0.5 mg/kg
# [17] = in vivo; conditions: Swiss Webster, mouse, blood and plasma, sc, 0.1 mg/kg; remark: listed apart in the source
# Description: Ratio of drug level in Swiss Webster mouse blood to plasma at 0.1 mg/kg, sc measured after 60 mins by LC-MS/MS analysis
# [18] = target: T1, Delta-type opioid receptor; experiment: Binding affinity to DOR (unknown origin) assessed as dissociation constant
# [19] = test system: Mus musculus; experiment: Antinociception activity in male Swiss Webster mouse model assessed as effective dose administered as sc dose measured after 20 mins by warm-water tail immersion assay; assay type: functional
# [20] = Toxicity in Swiss Webster mouse assessed as reduction in locomotion activity administered as sc dose measured for 30 mins; assay type: organism-based; conditions: in vivo, 0.5 h, dose 0.1-0.5 mg/kg
# [21] = test system: Mus musculus; experiment: Antinociception activity in male Swiss Webster mouse model assessed as increase in maximum possible effect at 0.1 mg/kg, sc measured after 4 to 9 hrs post injection by warm-water tail immersion assay; assay type: functional, organism-based; conditions: time 4-9 hrs
# [22] = target: T1, Delta-type opioid receptor
# [23] = test system: Mus musculus; experiment: Antinociception activity in male Swiss Webster mouse model assessed as increase in maximum possible effect at 0.1 mg/kg, sc measured after 30 to 60 mins post injection by warm-water tail immersion assay; assay type: functional, organism-based; conditions: time 30-60 min
# [24] = Abuse liability in male Sprague-Dawley rat assessed as reduction in reinforcement at 0.1 to 10 microg/kg administered per infusion; assay type: toxicity; conditions: in vivo, iv, dose 0.1-10 µg/kg
Structure (SMILES),MPE [1],Kd [2] [nM],MPE [3],Kd [4] [nM],Kd [5] [nM],other results
C=CCN1CC[C@]23c4c5ccc(O)c4O[C@H]2C(=O)CC[C@@]3(O)[C@H]1C5 [NALOXONE],<=40%,,,,,
CN(C(=O)CCc1ccoc1)[C@@H]1CC[C@@]2(O)[C@H]3Cc4cccc5c4[C@@]2(CCN3CC2CC2)[C@H]1O5.Cl,100%,891,<=40%,43.8,34.5,
CN(C(=O)CCc1ccco1)[C@@H]1CC[C@@]2(O)[C@H]3Cc4ccc(O)c5c4[C@@]2(CCN3CC2CC2)[C@H]1O5.Cl,,7.32,100%,0.66,0.32,
Cl.O=C(/C=C/c1ccco1)N[C@H]1CC[C@@]2(O)[C@H]3Cc4ccc(O)c5c4[C@@]2(CCN3CC2CC2)[C@H]1O5,,8.75,100%,0.53,1.08,
Cl.O=C(/C=C/c1ccco1)N[C@@H]1CC[C@@]2(O)[C@H]3Cc4ccc(O)c5c4[C@@]2(CCN3CC2CC2)[C@H]1O5,,12.8,80%,0.3,0.17,
CN(C(=O)CCc1ccoc1)[C@@H]1CC[C@@]2(O)[C@H]3Cc4ccc(O)c5c4[C@@]2(CCN3CC2CC2)[C@H]1O5.Cl,,8.42,100%,0.53,0.28,
CN(C(=O)CCc1ccco1)[C@H]1CC[C@@]2(O)[C@H]3Cc4cccc5c4[C@@]2(CCN3CC2CC2)[C@H]1O5.Cl,,46.8,40%,14.1,1,
Cl.O=C(/C=C/c1ccco1)N[C@@H]1CC[C@@]2(O)[C@H]3Cc4cccc5c4[C@@]2(CCN3CC2CC2)[C@H]1O5,100%,551,<=40%,42.4,7.03,Emax [6]: 81%
CN(C(=O)/C=C/c1ccco1)[C@H]1CC[C@@]2(O)[C@H]3Cc4ccc(O)c5c4[C@@]2(CCN3CC2CC2)[C@H]1O5.Cl,,0.93,80%,0.2,0.14,Activity [7]: Toxic; Activity [8]: Active; Activity [9]: Non-Toxic; Drug uptake [10]: Active; Emax [6]: 83.2%; Activity [11]: Toxic; Activity [12]: inactive; Activity [13]: inactive; Activity [14]: inactive; blood plasma ratio at 0.5 h [15]: 0.633; Activity [16]: Toxic; blood plasma ratio at 1 h [17]: 0.938
CN(C(=O)CCc1ccoc1)[C@H]1CC[C@@]2(O)[C@H]3Cc4ccc(O)c5c4[C@@]2(CCN3CC2CC2)[C@H]1O5.Cl,,0.59,40%,0.18,0.13,
CN(C(=O)CCc1ccco1)[C@H]1CC[C@@]2(O)[C@H]3Cc4ccc(O)c5c4[C@@]2(CCN3CC2CC2)[C@H]1O5.Cl,,0.37,100%,0.15,0.12,
Cl.O=C(CCc1ccco1)N[C@@H]1CC[C@@]2(O)[C@H]3Cc4ccc(O)c5c4[C@@]2(CCN3CC2CC2)[C@H]1O5,40%,33,<=40%,0.28,0.61,
CN(C(=O)/C=C/c1ccoc1)[C@@H]1CC[C@@]2(O)[C@H]3Cc4ccc(O)c5c4[C@@]2(CCN3CC2CC2)[C@H]1O5.Cl [NALFURAFINE HYDROCHLORIDE],,,80%,,,Activity [7]: Toxic; Kd [18]: 116 nM; ED50 [19]: 0.046 mg/kg; Activity [20]: Dose-Dependent Effect; Activity [21]: inactive; Activity [12]: inactive; Activity [13]: inactive; Activity [14]: inactive; EC50 [22]: 141 nM; Activity [23]: Active; Activity [16]: Toxic; Activity [24]: Non-Toxic
